The results in this text go back to patent publication US10759799B2, “Indazole containing macrocycles and therapeutic uses thereof” (Samumed, LLC, priority 2018, dated 2020).

Usually EC50 stands for the concentration giving half of the maximal effect. By IC50 is commonly meant the concentration that inhibits the measured activity by half.

The test system of test [1] is primary human fibroblasts derived from IPF patients (LL29 cells). As to the kind of experiment: Inhibition of TGF-β1 induced fibrosis (αSMA staining) in LL29 fibroblasts. It is filed as cell-based. The following applies: Fibroblast, 96 h, LL29 cells, TGF-β1 20 ng/mL, 4 days, % αSMA positive cells. The procedure: Representative compounds were screened using primary human fibroblasts (derived from IPF patients) treated with TGF-β1 to determine their ability to inhibit the fibrotic process.
LL29 cells were plated at 1,500 cells/well in 70 μL/well F12 medium supplemented with 1% Fetal Bovine Serum. […] Wells treated with TGF-β1 and containing DMSO were used as positive control, and cells with only DMSO were negative control. […] Following incubation for 4 days, SYTOX green nucleic acid stain (Life Technologies [Thermo Fisher Scientific]) was added to the wells at a final concentration of 1 μM and incubated at room temperature for 30 min.

In the next test the target is recombinant GSK3β kinase (Homo sapiens (Human), UniProt P49841). As to the kind of experiment: GSK3β kinase assay (Ser/Thr 09 peptide Z-lyte, FRET). It is filed as biochemical. The following applies: 46 μM ATP, one hour at room temperature, read-out: EC50 (μM) (IC50 per method). The text has this:
Representative compounds were screened using the assay procedure for GSK3β kinase activity as described below.
The GSK3β kinase assay is run using the Ser/Thr 09 peptide Z-lyte assay kit according to manufacturer's instructions (Life Technologies—a Division of Thermo-Fisher). This is a non-radioactive assay using fluorescence resonance energy transfer (FRET) between coumarin and fluorescein to detect kinase activity which is represented as ratio of coumarin emission/fluorescein emission.
Briefly, recombinant GSK3β kinase, ATP and Ser/Thr peptide 09 are prepared in 1× Kinase buffer to final concentrations of 0.04 μg/mL, 46 μM, and 4 μM respectively. The mixture is allowed to incubate with the representative compounds for one hour at room temperature. All reactions were performed in duplicate. Unphosphorylated (“0% Control”) and phosphorylated (“100% control”) forms of […] serve as control reactions.
After incubation, diluted Development Buffer is added to the reaction and allowed to further incubate for one hour at room temperature. The plate is read at Ex 400 Em 455 to detect the coumarin signal and Ex 400 Em 520 to measure the signal (EnVision Multilabel Plate Reader, PerkinElmer).
The Emission ratio (Em) is calculated as a ratio of the coumarin (C) emission signal (at 445 nm)/Fluorescein (F) emission signal (at 520 nm). The percent phosphorylation is then calculated using the following formula: [1−((Em ratio×F100%)−C100%)/((C0%−C100%)+(Em ratio×(F100%−F0%)))].
Dose-response curves are generated and inhibitory concentration (IC50) values are calculated using non-linear regression curve fit in the Dotmatics' Studies Software (Bishops Stortford, UK).

For a further test, the system named is IL-6. As to the kind of experiment: IL-6 inhibition in LPS-stimulated human PBMCs (HTRF). The following applies: PBMC, huPBMCs, LPS 50 ng/mL, 22 hours, IL-6 HTRF. The format is cell-based. On the procedure: Fresh Normal PB MNC (Catalog # PB001, AllCells, Alameda, Calif.) were shipped overnight at 4° C. and resuspended in Roswell Park Memorial Institute (RPMI) 1640 Medium, with GlutaMAX Supplement (Catalog #61870127, ThermoFisher Scientific, Waltham, Mass.) supplemented with 1% Penicillin-Streptomycin (Catalog #15140163, ThermoFisher Scientific, Waltham, Mass.) and 1% fetal bovine serum (FBS) (Catalog #16140089, ThermoFisher Scientific, Waltham, Mass.) assay media.
Compound Screening: Fresh normal human peripheral blood mononuclear cells (huPBMCs) were resuspended in 1% FBS-RPMI assay media with 1% Penicillin-Streptomycin 1% to a cell concentration of 1×10e6 cells/mL. […] 50 ng/mL of Lipopolysaccharides from Escherichia coli 0111:B4 (Catalog # L5293-2ML, Sigma-Aldrich, St. Louis, Mo.) was added after 2 hours and cells were incubated for another 22 hours at 37° C.-5% CO2. After 22 hour incubation, a mixture of anti-IL6 XL665 and anti-IL-6 Cryptate diluted in reconstitution buffer (Catalog #62IL6PEC, Cisbio Inc., Bedford, Mass.) was added to each well. Following incubation for 3 hours at room temperature, Homogeneous Time-Resolved Fluorescence (HTRF) was measured using the Envision (Perkin Elmer, Shelton, Conn.) at 665 nm and […]. The ratio of fluorescence at 665 nm to 620 nm was used as a readout for IL-6 quantification. All samples were processed in duplicate. Readings were normalized to DMSO treated cells and normalized activities were utilized for EC50 calculations. EC50 was determined using software generated by Dotmatics Limited (Windhill Bishops Stortford Herts, UK) using the Levenberg-Marquardt 4 parameter fitting procedure with finite different gradients.
(In TR-FRET formats the signal depends on donor and acceptor labels being close together.)

For test [2], the system named is SW480 colon carcinoma cells. Nature of the test: Cell viability assay (CellTiter-Glo) in SW480 cells. It is filed as cell-based. The following applies: Homo sapiens, 96 h; SW480 cell viability, four days, CellTiter-Glo. On the procedure: Representative compounds were screened using the assay procedure to assess the effect on cell viability as described below.
SW480 colon carcinoma cells were transduced with a lentiviral vector expressing luciferase with a human Sp5 promoter consisting of a sequence of eight TCF/LEF binding sites. SW480 cells stably expressing the Sp5-Luc reporter gene and a hygromycin resistance gene were selected by treatment with 150 μg/mL of hygromycin for 7 days. These stably transduced SW480 cells were expanded in cell culture and used for all further screening activities.
For the Cell Viability Assays, the cells were plated at 2,000 cells/well in 384-well plates with a DMEM medium containing 1% fetal bovine serum, and 1% Penicillin-Streptomycin and incubated for […] at 37° C. and 5% CO2. Eight replicates of DMSO-treated cells served as controls and cells treated with compound were performed in duplicate.
After incubation, 10 μL of CellTiter-Glo (Promega) was added to each well allowed to incubate for approximately 12 minutes. This reagent “results in cell lysis and generation of a luminescent signal proportional to the amount of ATP present. The amount of ATP is directly proportional to the number of cells present in culture, in agreement with previous reports. The CellTiter-Glo Assay generates a “glow-type” luminescent signal, produced by the luciferase reaction (Promega.com)”.

Sequence of recombinant GSK3β kinase (P49841 whole entry): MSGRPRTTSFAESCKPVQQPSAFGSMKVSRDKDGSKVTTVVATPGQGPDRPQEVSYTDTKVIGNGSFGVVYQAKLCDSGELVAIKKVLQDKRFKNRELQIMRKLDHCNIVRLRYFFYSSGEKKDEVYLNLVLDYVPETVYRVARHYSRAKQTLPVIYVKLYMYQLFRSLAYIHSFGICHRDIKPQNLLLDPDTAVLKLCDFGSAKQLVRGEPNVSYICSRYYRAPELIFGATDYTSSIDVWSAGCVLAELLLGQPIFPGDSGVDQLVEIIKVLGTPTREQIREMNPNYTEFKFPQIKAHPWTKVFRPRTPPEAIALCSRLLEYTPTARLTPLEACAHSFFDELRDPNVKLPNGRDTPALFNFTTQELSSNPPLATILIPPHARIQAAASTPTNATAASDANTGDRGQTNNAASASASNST

Regarding `c1cc2cc(c1)-c1cncc3[nH]c(nc13)-c1n[nH]c3ccc(cc13)-c1cncc(c1)CNC2` [Compound 8, (Z)-2^3H,3H-6-Aza-2(7,2)-imidazo[4,5-c]pyridina-3(3,5)-indazola-4(3,5)-pyridina-1(1,3)-benzenacycloheptaphane], the EC50 in test [1] worked out at 19 nM; in the test on IL-6, 65 nM; in test [2], 49 nM. Moreover, at recombinant GSK3β kinase, the IC50 came out at 0.001 µM.
For `CN1Cc2cncc(c2)-c2ccc3[nH]nc(c3c2)-c2nc3c(cccc3[nH]2)-c2cccc(c2)C1` [Compound 22, (Z)-6-Methyl-2^1H,3^1H-6-aza-2(5,3),3(2,4)-diindazola-1(3,5)-pyridina-4(1,3)-benzenacycloheptaphane], in that order: 35 nM, 161 nM, 14 nM and 0.011 µM.
On the same counts, the results for `CN1CCCCN(C)c2nccc3[nH]c(nc23)-c2n[nH]c3ccc(cc23)-c2cncc(c2)C1` [Compound 51, (Z)-5,10-Dimethyl-1H,2^1H-5,10-diaza-1(2,4)-imidazo[4,5-c]pyridina-2(3,5)-indazola-3(3,5)-pyridinacyclodecaphane] are 203 nM, 414 nM, 515 nM and 0.002 µM.
